What all share (assay): Kinase panel profiling at 1 µmol/L (MSA or IMAP), percentage inhibition
Common to all, as to assay type: biochemical

Assay [1] addresses panel of 255 wild-type kinases (Homo sapiens, UniProt P08922). The following applies: read-out: %-inhibition at 1 µmol/L, ROS.
The target in assay [2] is panel of 255 wild-type kinases (Homo sapiens, UniProt P53779). The following applies: read-out: %-inhibition at 1 µmol/L, JNK3.
Assay [3] deals with T1, panel of 255 wild-type kinases (Homo sapiens, UniProt P54760).
T1 sequence (P54760 16-987): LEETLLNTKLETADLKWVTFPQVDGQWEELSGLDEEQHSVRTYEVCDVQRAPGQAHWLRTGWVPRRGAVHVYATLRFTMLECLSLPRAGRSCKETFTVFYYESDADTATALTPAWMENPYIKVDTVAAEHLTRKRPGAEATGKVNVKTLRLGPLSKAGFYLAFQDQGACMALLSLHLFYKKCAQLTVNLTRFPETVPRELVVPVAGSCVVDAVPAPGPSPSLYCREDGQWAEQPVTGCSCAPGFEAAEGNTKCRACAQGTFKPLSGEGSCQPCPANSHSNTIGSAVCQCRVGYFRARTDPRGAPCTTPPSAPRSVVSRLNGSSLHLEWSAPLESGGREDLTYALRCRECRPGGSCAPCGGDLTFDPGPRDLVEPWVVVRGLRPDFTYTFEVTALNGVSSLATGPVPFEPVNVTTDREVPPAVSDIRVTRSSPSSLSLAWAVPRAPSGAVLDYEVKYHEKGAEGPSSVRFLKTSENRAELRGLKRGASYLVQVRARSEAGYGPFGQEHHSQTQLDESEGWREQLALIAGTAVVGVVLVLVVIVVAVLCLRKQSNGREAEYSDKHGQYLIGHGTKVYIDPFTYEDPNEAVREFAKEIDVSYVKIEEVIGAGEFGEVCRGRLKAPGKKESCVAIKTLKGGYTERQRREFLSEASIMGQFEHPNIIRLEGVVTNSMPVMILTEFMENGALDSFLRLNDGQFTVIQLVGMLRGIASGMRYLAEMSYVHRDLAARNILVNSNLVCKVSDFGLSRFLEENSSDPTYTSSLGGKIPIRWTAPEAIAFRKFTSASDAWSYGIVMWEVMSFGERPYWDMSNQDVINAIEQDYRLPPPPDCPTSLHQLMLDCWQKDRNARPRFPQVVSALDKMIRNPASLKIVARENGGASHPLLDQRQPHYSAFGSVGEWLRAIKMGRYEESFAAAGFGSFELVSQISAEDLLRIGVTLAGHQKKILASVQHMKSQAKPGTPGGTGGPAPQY
As to conditions: read-out: %-inhibition at 1 µmol/L, EPHB4.

Assay [4] concerns the target T2, panel of 255 wild-type kinases (Homo sapiens, UniProt Q05513).
T2 sequence (Q05513 1-592): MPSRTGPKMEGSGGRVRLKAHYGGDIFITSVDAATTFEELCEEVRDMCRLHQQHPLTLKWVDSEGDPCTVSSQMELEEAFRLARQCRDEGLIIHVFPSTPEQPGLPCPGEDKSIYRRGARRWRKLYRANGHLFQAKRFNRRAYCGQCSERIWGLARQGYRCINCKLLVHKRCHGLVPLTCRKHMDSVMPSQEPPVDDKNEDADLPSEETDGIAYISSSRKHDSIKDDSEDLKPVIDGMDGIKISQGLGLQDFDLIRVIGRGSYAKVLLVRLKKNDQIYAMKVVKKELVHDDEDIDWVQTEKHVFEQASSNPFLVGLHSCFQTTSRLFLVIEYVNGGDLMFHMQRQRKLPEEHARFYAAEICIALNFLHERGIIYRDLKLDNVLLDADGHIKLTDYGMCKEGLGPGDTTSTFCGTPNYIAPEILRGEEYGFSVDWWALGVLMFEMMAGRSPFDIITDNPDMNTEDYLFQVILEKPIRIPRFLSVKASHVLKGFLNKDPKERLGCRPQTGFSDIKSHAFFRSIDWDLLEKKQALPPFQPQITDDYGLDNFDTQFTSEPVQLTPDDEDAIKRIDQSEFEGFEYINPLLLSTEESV
The following applies: read-out: %-inhibition at 1 µmol/L, PKCζ.

In assay [5] the target is T3, panel of 255 wild-type kinases (Homo sapiens, UniProt Q16832).
T3 sequence (Q16832 22-855): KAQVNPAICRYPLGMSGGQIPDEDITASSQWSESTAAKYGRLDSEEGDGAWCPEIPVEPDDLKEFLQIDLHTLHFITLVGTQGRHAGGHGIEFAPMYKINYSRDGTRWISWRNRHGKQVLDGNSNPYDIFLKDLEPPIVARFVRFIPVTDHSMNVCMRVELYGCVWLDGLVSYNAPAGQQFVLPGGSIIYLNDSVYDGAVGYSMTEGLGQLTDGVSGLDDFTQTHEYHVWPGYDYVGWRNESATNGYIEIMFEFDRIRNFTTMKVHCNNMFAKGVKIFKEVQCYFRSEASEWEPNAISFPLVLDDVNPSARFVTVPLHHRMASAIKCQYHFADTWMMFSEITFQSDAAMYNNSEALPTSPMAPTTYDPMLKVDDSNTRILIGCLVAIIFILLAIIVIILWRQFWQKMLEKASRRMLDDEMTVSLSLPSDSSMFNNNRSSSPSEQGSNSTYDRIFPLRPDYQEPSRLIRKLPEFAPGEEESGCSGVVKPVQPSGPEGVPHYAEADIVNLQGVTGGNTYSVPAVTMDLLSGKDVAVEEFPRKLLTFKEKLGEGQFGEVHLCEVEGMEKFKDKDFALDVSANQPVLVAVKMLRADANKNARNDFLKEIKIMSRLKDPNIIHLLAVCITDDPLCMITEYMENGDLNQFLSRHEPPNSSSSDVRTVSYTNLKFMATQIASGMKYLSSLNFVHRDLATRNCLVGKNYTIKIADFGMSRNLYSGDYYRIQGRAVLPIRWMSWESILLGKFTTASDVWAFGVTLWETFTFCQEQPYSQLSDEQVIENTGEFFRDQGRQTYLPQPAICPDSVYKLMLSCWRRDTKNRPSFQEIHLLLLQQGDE
As to conditions: read-out: %-inhibition at 1 µmol/L, DDR2.

The target in assay [6] is panel of 255 wild-type kinases (Homo sapiens, UniProt Q8IU85). As to conditions: read-out: %-inhibition CaMK1δ.
For assay [7], the target named is panel of 255 wild-type kinases (Homo sapiens, UniProt Q9UBS0). As to conditions: read-out: %-inhibition, p70S6Kβ.
[8] abbreviates: kinase ROS, 1 µmol/L single concentration.
Where [9] appears, read: kinase JNK3, 1 µmol/L single concentration.
Where [10] appears, read: kinase EPHB4, 1 µmol/L single concentration.
The mark [11] stands for this setting: kinase PKCζ, 1 µmol/L single concentration.
Setting [12] is: kinase DDR2, 1 µmol/L single concentration.
Where [13] appears, read: CaMK1δ kinase assay, 1 µmol/L single concentration.
Where [14] appears, read: p70S6Kβ, 1 µmol/L single concentration.

Like-named read-outs stand apart in the source and are kept apart here.

As to `Cc1nc(NC(=O)N2CCC[C@H]2C(N)=O)sc1-c1ccnc(C(C)(C)C(F)(F)F)c1` [alpelisib], the inhibition at 1 µM in assay [1] (setting [8]) was -6%; in assay [2] (setting [9]) it was -12%; in assay [3] (setting [10]), 3.19%; in assay [4] (setting [11]), 14%; in assay [5] (setting [12]) it was 5.45%; in assay [6] (setting [13]), 2%. For the same compound, in assay [7] (setting [14]), the inhibition at 1 µM came to 4.37%.

`Cn1cc(-c2cc3c(N4CCN(c5ncc([C@@](C)(N)c6ccc(F)cc6)cn5)CC4)ncnn3c2)cn1` [avapritinib]: the inhibition at 1 µM was 67% in assay [1] (setting [8]); 2.14% in assay [2] (setting [9]); 34% in assay [3] (setting [10]); -0.226% in assay [4] (setting [11]); 98% in assay [5] (setting [12]); -4.32% in assay [6] (setting [13]). Moreover, in assay [7] (setting [14]), the inhibition at 1 µM came to 6%.

As for `Cn1cnc2c(F)c(Nc3ccc(Br)cc3F)c(C(=O)NOCCO)cc21` [binimetinib], the inhibition at 1 µM in assay [1] (setting [8]) was 16%; in assay [2] (setting [9]), 7%; in assay [3] (setting [10]) it was -0.0401%; in assay [4] (setting [11]) it was 10%; in assay [5] (setting [12]), -10%; in assay [6] (setting [13]), -8%. Moreover, the inhibition at 1 µM in assay [7] (setting [14]) worked out at 1.09%.

Turning to `CNC(=O)c1ccc(-c2cnc3ncc(Cc4ccc5ncccc5c4)n3n2)cc1F` [capmatinib], the inhibition at 1 µM in assay [1] is 21%; in assay [2] it was 5%; in assay [3] it was -1.2%; in assay [4] it was 0.759%; in assay [5], -1%; in assay [6], -10%. Besides, in assay [7], the inhibition at 1 µM turned out to be 12%.

For the compound `COc1cc2ncnc(Nc3ccc(F)c(Cl)c3)c2cc1NC(=O)/C=C/CN1CCCCC1` [dacomitinib], the inhibition at 1 µM in assay [1] (setting [8]) was determined as 22%; in assay [2] (setting [9]), 0.338%; in assay [3] (setting [10]), 62%; in assay [4] (setting [11]), 24%; in assay [5] (setting [12]), 93%; in assay [6] (setting [13]) it was 1.43%. Also, in assay [7] (setting [14]), the inhibition at 1 µM is -0.889%.

Regarding `C[C@H](Nc1ncnc2nc[nH]c12)c1cc2cccc(Cl)c2c(=O)n1-c1ccccc1` [duvelisib], the inhibition at 1 µM in assay [1] (setting [8]) was -3.53%; in assay [2] (setting [9]), -10%; in assay [3] (setting [10]) it was 3.24%; in assay [4] (setting [11]), 16%; in assay [5] (setting [12]), 8%; in assay [6] (setting [13]) it was 6%. Also, in assay [7] (setting [14]), the inhibition at 1 µM turned out to be 2.47%.

Turning to `COC(=O)N[C@@H](C)CNc1nccc(-c2cn(C(C)C)nc2-c2cc(Cl)cc(NS(C)(=O)=O)c2F)n1` [encorafenib], the inhibition at 1 µM in assay [1] (setting [8]) was 14%; in assay [2] (setting [9]) it was 59%; in assay [3] (setting [10]), -0.672%; in assay [4] (setting [11]), 19%; in assay [5] (setting [12]) it was -7%; in assay [6] (setting [13]), -7%. The inhibition at 1 µM in assay [7] (setting [14]) was 8%.

Regarding `CN1CCN(c2ccc(C(=O)Nc3n[nH]c4ccc(Cc5cc(F)cc(F)c5)cc34)c(NC3CCOCC3)c2)CC1` [entrectinib], the inhibition at 1 µM in assay [2] (setting [9]) was -1.69%; in assay [3] (setting [10]), 73%; in assay [4] (setting [11]), 17%; in assay [5] (setting [12]), 100%; in assay [6] (setting [13]) it was 16%; in assay [7] (setting [14]), 0.699%.

As for `CCc1nc(C(N)=O)c(Nc2ccc(N3CCC(N4CCN(C)CC4)CC3)c(OC)c2)nc1NC1CCOCC1` [gilteritinib], the inhibition at 1 µM was found to be 100% in assay [1] (setting [8]); 52% in assay [2] (setting [9]); 74% in assay [3] (setting [10]); 21% in assay [4] (setting [11]); 99% in assay [5] (setting [12]); 39% in assay [6] (setting [13]). In addition, the inhibition at 1 µM in assay [7] (setting [14]) was 23%.

Regarding `CCN1CCN(c2ccc(Nc3cc(N(C)C(=O)Nc4c(Cl)c(OC)cc(OC)c4Cl)ncn3)cc2)CC1` [infigratinib], the inhibition at 1 µM in assay [1] (setting [8]) was 29%; in assay [2] (setting [9]) it was 4%; in assay [3] (setting [10]), -0.369%; in assay [4] (setting [11]), 3.18%; in assay [5] (setting [12]), 63%; in assay [6] (setting [13]), 2.23%. Also, the inhibition at 1 µM in assay [7] (setting [14]) is 5.43%.

Consider `O=C(Nc1cnn2ccc(N3CCC[C@@H]3c3cc(F)ccc3F)nc12)N1CC[C@H](O)C1` [larotrectinib], for which the inhibition at 1 µM in assay [1] is 86%; in assay [2] (setting [9]) it was -7%; in assay [3] (setting [10]), -2.17%; in assay [4] (setting [11]) it was 0.558%; in assay [5] (setting [12]), 26%; in assay [6] (setting [13]), 3.44%. The inhibition at 1 µM in assay [7] (setting [14]) was found to be 4.22%.

In the case of `C[C@H]1Oc2cc(cnc2N)-c2c(nn(C)c2C#N)CN(C)C(=O)c2ccc(F)cc21` [lorlatinib], the inhibition at 1 µM is 101% in assay [1] (setting [8]); -8.55% in assay [2] (setting [9]); 43% in assay [3] (setting [10]); 17% in assay [4] (setting [11]); 21% in assay [5] (setting [12]); 7% in assay [6] (setting [13]). The inhibition at 1 µM in assay [7] (setting [14]) amounted to 11%.

Take `CCN1C(=O)N(c2c(F)c(OC)cc(OC)c2F)Cc2cnc3[nH]c(CN4CCOCC4)cc3c21` [pemigatinib]: the inhibition at 1 µM was 3.74% in assay [1] (setting [8]); -7% in assay [2] (setting [9]); -3% in assay [3] (setting [10]); -0.0817% in assay [4] (setting [11]); 5% in assay [5] (setting [12]); 17% in assay [6] (setting [13]). In addition, the inhibition at 1 µM in assay [7] (setting [14]) is -0.851%.
